Measured values reported in US8791046B2, “Crystalline modification of fipronil” (BASF SE, priority 2006, dated 2014).

How the values were obtained:
[1] = Solubility and dissolution rate in solvents; assay type: physicochemical; conditions: in most solvents
[2] = Stability of the acetone solvate crystal form at ambient conditions; assay type: physicochemical; conditions: co-crystallized acetone solvent is volatile at ambient conditions

fipronil [crystalline modification IV]
dissolution rate [1]: remarkable high | solubility [1]: remarkable high | stability of the crystalline modification [2]: remarkable stability
